# Assay results taken from patent US7776558B2, “Human G protein-coupled receptor and modulators thereof for the treatment of cell death-related disorders” (Arena Pharmaceuticals, Inc., priority 2003, dated 2010).
# Several values for one entry are separate records, joined by “and”; a condition that tells them apart may be missing. Identical values can stand only once. Entries after “also recorded” stand apart in the source; their conditions may differ. Like-named read-outs stand apart in the source and are kept apart here. Where no end group is shown, it is not given here.
# Biological target: T1, human FPRL2 (Homo sapiens, UniProt P25089)
# T1 sequence (P25089 with tags, fused parts or gaps): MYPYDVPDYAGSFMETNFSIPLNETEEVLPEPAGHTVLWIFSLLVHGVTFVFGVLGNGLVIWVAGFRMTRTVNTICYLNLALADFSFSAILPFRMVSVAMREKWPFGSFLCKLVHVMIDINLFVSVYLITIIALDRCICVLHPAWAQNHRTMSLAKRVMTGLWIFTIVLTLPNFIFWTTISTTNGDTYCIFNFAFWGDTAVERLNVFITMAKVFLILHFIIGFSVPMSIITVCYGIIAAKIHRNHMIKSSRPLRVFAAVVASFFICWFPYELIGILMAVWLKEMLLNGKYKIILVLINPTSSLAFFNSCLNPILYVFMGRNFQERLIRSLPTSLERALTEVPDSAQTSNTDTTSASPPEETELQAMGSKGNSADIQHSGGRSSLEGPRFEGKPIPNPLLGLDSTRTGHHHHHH
# Assay: [35S]GTPγS binding assay, membranes of transiently transfected CHO cells
# Format: biochemical
# Parameters: expressed in transfected cells; host or cells: CHO-K1 cells, transient, pCMV; plasma membranes
# Experimental: The plasmids used were HA/V5 doubled tagged endogenous FPRL2 in pCMV, HA/V5 double-tagged endogenous FPRL1 in pCMV, HAN5 double-tagged endogenous FPR in pCMV, and pCMV alone (See, Example 1). Transient transfections were carried out on CHO-K1 cells. To a 15 cm dish of confluent cells, 12 μg of plasmid DNA and 60 μl Lipofectamine (Invitrogen, Carlsbad, Calif.) were added to each plate. Twenty-four hours post-infection, plasma membranes were isolated as described below. Assays were then run as described below.
# “Membrane Scrape Buffer” consists of 20 mM HEPES and 10 mM EDTA, pH 7.4; “Membrane Wash Buffer” consists of […] and 0.1 mM EDTA, pH 7.4; “Binding. Buffer” consists of 20 mM HEPES, 100 mM NaCl, and 10 mM MgCl2, pH 7.4.
# All materials were kept on ice throughout the procedure. Firstly, the media was aspirated from a confluent monolayer of transfected cells, followed by rinse with 10 ml cold PBS, followed by aspiration. Thereafter, 10 ml of Membrane Scrape Buffer was added to scrape cells; this was followed by transfer of cellular extract into 50 ml centrifuge tubes (centrifuged at 20,000 rpm for 17 minutes at 4° C.). Thereafter, the supernatant was aspirated and the pellet was resuspended in 30 ml Membrane Wash Buffer followed by centrifuging at 20,000 rpm for 17 minutes at 4° C. The supernatant was then aspirated and the pellet resuspended in Binding Buffer. This was then homogenized using a Brinkman Polytron™ homogenizer (15-20 second bursts until the all material is in suspension). This is referred to herein as “Membrane Protein”. A protein determination (Bradford Protein Assay) was carried out, and the protein concentration of the Membrane Protein was adjusted to 1.0 mg/ml with cold Binding Buffer for each of the experimental samples (FPRL2, FPRL1, FPR, pCMV).
# GDP Buffer consisted of 37.5 ml Binding Buffer and 2 mg GDP (Sigma, cat. no. G-7127), followed by a series of dilutions in Binding Buffer to obtain 0.2 μM GDP (final concentration of GDP in each well was 0.1 μM GDP); each well comprising a candidate compound, has a final volume of 200 μl consisting of 100 μl GDP Buffer (final concentration, 0.1 μM GDP), 50 μl Membrane Protein in Binding Buffer, and 50 μl [35S]GTPγS (0.6 nM) in Binding Buffer (2.5 μl [35S]GTPγS per 10 ml Binding Buffer).
# First, 100 μl GDP Buffer was added to each well of a Wallac Scintistrip™ (Wallac). […] Thereafter, 50 μl of Membrane Protein was added to each well (a control well comprising membranes without the GPCR Protein was also utilized), and pre-incubated for 5-10 minutes at room temperature. Thereafter, 50 μl of [^35S]GTPγS (0.6 nM) in Binding Buffer was added to each well, followed by incubation on a shaker for 60 minutes at room temperature (again, in this example, plates were covered with foil). The assay was then stopped by spinning of the plates at 4000 RPM for 15 minutes at 22° C. The plates were then aspirated with an 8 channel manifold and sealed with plate covers. The plates were then read on a Wallac 1450 using setting “Prot. #37” (as per manufacturer instructions).
# [1] = read-out: EC50 in [35S]GTPγS binding assay
# [2] = FIG. 3 panel A, transiently transfected CHO cells, read-out: EC50 at FPRL2, promoted [35S]GTPγS binding
EC50 values at FPRL2 relative to the corresponding values at FPRL1 (FPRL2 versus FPRL1),Molecule,EC75 in [35S]GTPγS binding assay,"Activity at human FPRL2, FPRL1 and FPR (by [35S]GTPγS binding assay and by melanophore assay, FIG. 5)",EC50 [1],EC50 [2],"Agonist activity and selectivity for FPRL2 (compared with FPRL1 and FPR, FIG. 3)"
–,"CC(C)c1ccc2c(c1)CCC1C(C)(C(N)=O)CCCC21C (stereo not drawn) [Compound 1, 7-Isopropyl-1,4a-dimethyl-1,2,3,4,4a,9,10,10a-octahydro-phenanthrene-1-carboxylic acid amide]",about 15 μM,robust and selective agonist of FPRL2,~2.8 µM,–,–
more than an order of magnitude lower,MAPRGFSCLLLLTGEIDLPVKRRA [[Gly14]-Humanin],–,–,–,~0.072 µM,selective and robust agonists for FPRL2; also recorded: robust and selective agonists for FPRL2
–,CC[C@H](C)[C@H](NC(=O)[C@H](CCC(=O)O)NC(=O)[C@H](CO)NC(=O)[C@@H](NC(=O)[C@H](CC(C)C)NC(=O)[C@H](CC(C)C)NC(=O)[C@H](CC(C)C)NC(=O)[C@H](CC(C)C)NC(=O)[C@H](CS)NC(=O)[C@H](CO)NC(=O)[C@H](Cc1ccccc1)NC(=O)CNC(=O)[C@H](CCCNC(=N)N)NC(=O)[C@@H]1CCCN1C(=O)[C@H](C)NC(=O)[C@@H](N)CCSC)[C@@H](C)O)C(=O)N[C@@H](CC(=O)O)C(=O)N[C@@H](CC(C)C)C(=O)N1CCC[C@H]1C(=O)N[C@H](C(=O)N[C@@H](CCCCN)C(=O)N[C@@H](CCCNC(=N)N)C(=O)N[C@@H](CCCNC(=N)N)C(=O)N[C@@H](C)C(=O)O)C(C)C [Humanin],about 1.5 μM,–,~0.32 µM and ~0.3 µM,~0.32 µM,–
